Test results taken from patent publication US8618068B2, “Methods and low dose regimens for treating red blood cell disorders” (priority 2009, dated 2013).

How the values were obtained:
in vivo = experiment: in vivo; parameters: species or system Beagle dogs; details: dog
Text: Completed toxicology studies conducted with DMB include a single-dose toxicity study in Sprague-Dawley rats, escalating dose toxicity study in Beagle dogs, a repeat dose study of 14-Day duration in Sprague-Dawley rats and repeat-dose toxicity studies of 28-Day duration in Sprague-Dawley rats and Beagle dogs, and 26-Week studies in Sprague-Dawley rats and Beagle dogs. […] Reproductive toxicity studies include two dose-range finding studies, one in Sprague-Dawley rats, the other in New Zealand white rabbits. DMB was administered once a day (QD) orally via gavage; doses are expressed as the sodium salt. In addition, an array of genotoxicity studies were conducted with DMB.
Based on the results of this study, the NOEL for DMB in male and female Beagle dogs was 50 mg/kg/day; and the NOAEL for DMB in male and female Beagle dogs was at least 300 mg/kg/day, the highest dose administered over the 26-Week treatment period.

fetal hemoglobin (HbF) = experiment: Phase 2 trial in sickle cell disease patients, HbF, total Hgb, fetal globin mRNA; assay type: in vivo, human
Method: A randomized, blinded dose-ranging Phase 1/2 clinical trial was performed in 24 US and Jamaican adult patients with sickle cell disease (including HbSS or S/β thalassemia). DMB was administered once daily for six week cycles of daily therapy with a 2 week treatment break between two cycles, then followed by a final 4 weeks without treatment. Three dose levels (10, 20, 30 mg/kg/day) were studied sequentially. Four out of 24 subjects were treated with placebo and 21 subjects were evaluable. Seven Patients (5 active/2 placebo) at 10 mg/kg, 6 patients (5 active/1 placebo) at 20 mg/kg, and 9 patients (7 active/1 placebo) at 30 mg/kg were randomized in the study. Patients ranged in age from 14 to 56 with a median age of 31 and were comprised of […]. Patients were followed for hematologic parameters focusing on fetal hemoglobin (HbF). HbF was measured by a Waters Empower 32 HPLC system with a Synchropak CM-300 column.

clinical = details: human, in vivo
Method: The first clinical study was a phase 1, double-blind, placebo-controlled, single dose study of the tolerability, safety and pharmacokinetics of DMB in 32 healthy volunteers. Healthy, fasting adult volunteers received single oral doses of DMB or placebo capsules at one of four dose levels (2 mg/kg, 5 mg/kg, 10 mg/kg and 20 mg/kg). Six subjects received study drug (24 subjects total) and 2 subjects received placebo at each dose level. The 8 placebo subjects received a capsule containing only the excipients from the capsules containing the active agent. Subjects at the 20 mg/kg also received a second dose of study drug after a defined meal, one week following the fasting dose.
DMB was rapidly absorbed after oral administration, with peak concentrations of DMB occurring at 0.5 to 3 hours after dosing, followed by a mono-exponential decay phase, consistent with linear pharmacokinetics (FIG. 7; FIG. 8). Inter-subject variability in the primary PK parameters appears to be low, especially at higher doses.

[1] = Toxicokinetics, 26-week rat study; assay type: in vivo, Sprague Dawley rats; details: for AUC(0-inf): both sexes, Sprague Dawley, rat, plasma, po, mean of male and female rats
Method: DMB was administered to Sprague Dawley rats daily for 26 weeks at doses of 50, 100 and 500 mg/kg/day via oral gavage. Plasma levels of DMB were measured at 1 to 24 hours post-dose on Days 1 and 181. […] Systemic exposure increased with increasing dose level and was greater than dose-proportional on Day 0 and Day 181. The peak and extent of systemic exposure of Sprague Dawley rats to DMB were similar in males and females. Systemic exposure values on Day 181 ranged from 137% to 218% of the values at Day 0 indicating an accumulation of DMB during this time period.
Toxicokinetic information from the 26-week rat (Table 7) and 26-week dog toxicity studies (Table 8) are compared to systemic exposure (AUC) levels determined in a clinical study.

reticulocyte counts = experiment: Reticulocyte counts in transgenic mice; assay type: in vivo; details: 500 mg/kg/day
Text: Transgenic mice containing the human β globin gene locus in a yeast artificial chromosome (βYAC) displaying the correct developmental regulation of ε-, γ-, and β-globin genes (with a silenced y-globin gene in the adult stage) were used to study the effects of DMB on γ-globin induction and erythroid cell production. In the μLCR-human A γ-globin transgenic mice, the y-globin mRNA expression relative to murine α-globin mRNA was increased by a mean of 1.8-fold above the baseline after treatment with DMB. In the βYAC transgenic mice at intraperitoneal (IP) doses of 500 mg/kg/day, DMB induced a 2-fold increase in human γ-globin mRNA synthesis relative to that of total non-α-globin. This level of induction was similar to that seen with 1,000 mg/kg/day of butyrate, and the changes were observed from 3 days after treatment initiation and persisted until 3 to 5 days after treatment termination.
Reticulocytosis was observed from day 3 up to day 12 (at the end of sampling).

CCC(C)(C)C(=O)[O-].[Na+] [DMB, Sodium 2,2-dimethylbutyrate]
NOAEL at 26 weeks (in vivo; both sexes, Beagle): ≥ 300 mg/kg/day
NOEL (in vivo; both, Beagle, 26 weeks): 50 mg/kg/day
adverse effects (in vivo): no adverse effects
clinical observations (in vivo): no important treatment-related clinical observations
effects on ECG measurements (in vivo): No biologically significant effects
responding subjects in whom lactate dehydrogenase (LDH) declined (fetal hemoglobin (HbF); 30 mg/kg doses): 4 of 5
dose level with the largest increase in HbF (fetal hemoglobin (HbF); Day 97): 30 mg/kg
dose level with the largest increase in total Hgb (fetal hemoglobin (HbF); Day 97): 30 mg/kg
change in percent HbF at Day 97 (fetal hemoglobin (HbF); all 3 DMB dose groups, compared to a decrease in placebo): median increases
change in absolute HbF at Day 97 (fetal hemoglobin (HbF); all three DMB dose groups): Median increases
change in total Hgb at Day 97 (fetal hemoglobin (HbF); all three DMB dose groups, compared to a decrease in placebo): median increases
percentage of F-cells and percentage of fetal hemoglobin (fetal hemoglobin (HbF); in some instances (FIG. 22, 10 mg/kg)): increased throughout the treatment period
CL/F (clinical): 0.267 to 1.03 mL/min/kg
Vd (clinical): 0.204 to 0.426 L/kg
doses achieving biologically active plasma drug levels (clinical): ≥ 10 mg/kg
half-life (clinical): 330 to 696 min
AUC(0-inf) (clinical; 2 mg/kg): 38 ± 23 µg·h/mL
AUC (clinical; 5 mg/kg): 38.3 µg·h/mL
AUC(0-inf) (clinical; 5 mg/kg): 320 ± 40 µg·h/mL
AUC(0-inf) (clinical; 10 mg/kg): 538 ± 125 µg·h/mL
AUC (clinical; 20 mg/kg): 1190 µg·h/mL
AUC(0-inf) (clinical; 20 mg/kg): 1190 ± 243 µg·h/mL
effect of food on AUCINF (clinical; 20 mg/kg): no effects were observed
Cmax (clinical; 20 mg/kg, mean Cmax): 89 µg/mL
time of peak concentrations after dosing (clinical; po): 0.5 to 3 h
time of peak plasma concentrations ([1]; Day 0): 1 h
AUC(0-inf) ([1]; 50 mg/kg): 125 µg·h/mL
AUC(0-inf) ([1]; 100 mg/kg): 278 µg·h/mL
AUC(0-inf) ([1]; 500 mg/kg (NOAEL)): 3440 µg·h/mL
rat AUC0-∞ relative to human AUC0-∞ ([1]; rat 50 mg/kg vs human 2 mg/kg): 3.2X
rat AUC0-∞ relative to human AUC0-∞ ([1]; rat 50 mg/kg vs human 5 mg/kg): 0.4X
rat AUC0-∞ relative to human AUC0-∞ ([1]; rat 50 mg/kg vs human 10 mg/kg): 0.2X
rat AUC0-∞ relative to human AUC0-∞ ([1]; rat 50 mg/kg vs human 20 mg/kg): 0.1X
rat AUC0-∞ relative to human AUC0-∞ ([1]; rat 100 mg/kg vs human 2 mg/kg): 7.3X
rat AUC0-∞ relative to human AUC0-∞ ([1]; rat 100 mg/kg vs human 5 mg/kg): 0.9X
rat AUC0-∞ relative to human AUC0-∞ ([1]; rat 100 mg/kg vs human 10 mg/kg): 0.5X
rat AUC0-∞ relative to human AUC0-∞ ([1]; rat 100 mg/kg vs human 20 mg/kg): 0.2X
rat AUC0-∞ relative to human AUC0-∞ ([1]; rat 500 mg/kg (NOAEL) vs human 2 mg/kg): 91X
rat AUC0-∞ relative to human AUC0-∞ ([1]; rat 500 mg/kg (NOAEL) vs human 5 mg/kg): 10.7X
rat AUC0-∞ relative to human AUC0-∞ ([1]; rat 500 mg/kg (NOAEL) vs human 10 mg/kg): 6.4X
rat AUC0-∞ relative to human AUC0-∞ ([1]; rat 500 mg/kg (NOAEL) vs human 20 mg/kg): 2.9 X
increase in reticulocyte counts (reticulocyte counts): approximately 6.7 fold
